# Assays:
# [1] = competitive slurry in ethanol/water at 25, 30, 35 and 40° C.; enantiotropically related forms
# Experimental: Competitive slurry experiments of Forms A and B in ethanol/water at 25° C., 30° C., 35° C. and 40° C. were used to establish the transition temperature of the enantiotropic forms.
# [2] = Experimental: The Form B crystals were added to the SLS and PVP to form a slurry. […] FIG. 9 depicts complimentary in situ process analytical data from Raman spectroscopy (on solute concentration and solid phase composition) and Focused Beam Reflectance Measurement (FBRM characterizing number and dimension of the dispersed particles).
# [3] = Form A: temperature range where Form B is stable; Form B: process solvent above 50° C., few hours, no Form A seeds
smiles,measurement,setting,value
CC(C)(F)C[C@H](N[C@@H](c1ccc(-c2ccc([C@@H](O)C(F)F)cc2)cc1)C(F)(F)F)C(=O)NC1(C#N)CC1 [Form A],temperature at which the form is the more stable form,[1],≥ 40 °C
same,relative solubility of the forms (Raman solute signal),"[2]; 80° C., slurry in aqueous SLS and PVP",lower solubility
same,form conversion during API process and DP processing timeframes,[3],does not convert to Form B
CC(C)(F)C[C@H](N[C@@H](c1ccc(-c2ccc([C@@H](O)C(F)F)cc2)cc1)C(F)(F)F)C(=O)NC1(C#N)CC1 [Form B],temperature at which the form is the more stable form,[1],≤ 30 °C
same,time for conversion of most Form B crystals to Form A crystals,"[2]; 80° C., slurry in aqueous SLS and PVP, after introduction of Form A crystal seeds",≤ 2 h
same,Form A detected before seeding,"[2]; Form B slurry in aqueous SLS and PVP raised to 80° C., before Form A seeds",no Form A detected
same,form conversion during API process and DP processing timeframes,[3],converts to Form A

# — patent US20210317077A1, “Crystalline Forms of N1-(1-Cyanocycloproply)-N2-((1S)-1-{4'-[(1R-2,2-Difluoro-1-Hydroxyethyl]Biphenyl-4-YL}-2,2,2-Trifluoroethyl)-4-Fluoro-L-Leucinamide” (Intervet Inc., priority 2018, published 2021)
